Measured values reported in PubChem BioAssay (NCI).
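Exposure lasted 48 hours, with cells grown in 96-well plates and compounds tested at five concentrations. GI50: concentration for 50% inhibition of growth. TGI is the concentration that stops growth completely.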

What was measured:
Test in all cases: NCI tumour cell line growth inhibition, 48 h
[1] = test system: DU-145 prostate
[2] = test system: HCC-2998 colon
[3] = test system: HCT-15 colon
[4] = test system: HL-60(TB) leukemia
[5] = test system: M14 melanoma
[6] = test system: NCI-H522 lung
[7] = test system: OVCAR-8 ovarian
[8] = test system: SK-MEL-2 melanoma
[9] = test system: SK-MEL-5 melanoma
[10] = test system: T-47D breast

Row | SMILES | GI50 [1] [µM] | TGI [1] [µM] | GI50 [2] [µM] | TGI [2] [µM] | GI50 [3] [µM] | TGI [3] [µM] | GI50 [4] [µM] | TGI [4] [µM] | GI50 [5] [µM] | TGI [5] [µM] | GI50 [6] [µM] | TGI [6] [µM] | GI50 [7] [µM] | TGI [7] [µM] | GI50 [8] [µM] | TGI [8] [µM] | GI50 [9] [µM] | TGI [9] [µM] | TGI [10] [µM] | GI50 [10] [µM]
1 | N=C(N)c1ccc(-c2ccc(-c3cc(Cl)cc(Cl)c3)o2)nc1 | 1.87 | 3.37 | 1.92 | 3.8 | 1.8 | 3.46 | 2.42 | 4.62 | 1.9 | 3.63 | 1.98 | 3.86 | 1.88 | 3.83 | 2.09 | 3.9 | 1.77 | 3.25 |  | 
2 | O=C(N/N=C(/c1ccccc1)C(F)(F)F)c1ccncc1 |  | > 100 |  | > 100 |  | > 100 |  | > 100 |  | > 100 |  | > 100 |  | > 100 |  | > 100 |  | > 100 | > 100 | 
3 | CCCc1[nH]c(SCCCCCCCCSc2nc(-c3ccc(F)cc3)c(CCC)[nH]2)nc1-c1ccc(F)cc1 |  |  |  | > 100 |  | > 100 |  | > 100 |  | > 100 |  |  |  | > 100 |  | > 100 |  | 67.1 |  | 
4 | CC1SC(c2ccccc2)N(CCc2cccs2)C1=O (stereo not given) | 7.08 | 19.9 | 4.4 | 16.4 | 3.86 | 18.8 | 2.85 | 8.67 |  |  | 1.89 | 8.76 | 4.72 | 31.2 | 3.42 | 14.7 | 1.67 | 3.15 | 18.7 | 2.16
5 | COc1ccc(/C(=C2/O[C@@H]([C@H]3COC(C)(C)O3)[C@H]3OC(C)(C)O[C@@H]23)c2cc(OC)c(OC)c(OC)c2)cc1O | 3.93 | > 100 | 31.1 | 80.4 | 4.06 | 39.7 | 6.48 | 56.8 |  |  | 2.95 | 7.54 | 8.56 | > 100 | 3.26 | 8.44 | 4.12 | 15 | > 100 | 44.3
6 | CN(C)CC(=O)Nc1ccc(Cn2nnc3c2C(=O)c2nnn(Cc4ccc(NC(=O)CN(C)C)cc4)c2C3=O)cc1 | 0.175 | 0.337 | 0.162 | 0.37 |  |  | 0.074 | 0.5 | 0.14 | 0.284 |  |  | 0.228 | 0.679 |  |  | 0.151 | 0.286 | 0.449 | 0.166
7 | CCOC(=O)CSc1nc(N)c2c(-c3ccc(OC)c(OC)c3)c3c(nc2n1)CCCC3 |  | > 100 |  |  |  | > 100 |  | > 100 |  | > 100 |  |  |  | 87.4 |  |  |  | > 100 | > 100 | 
8 | Cc1cccc2nc3c(C(=O)NCCN(C)C)cccc3cc12 |  |  |  | 5.36 |  | 6.68 |  | 3.37 |  |  |  |  |  | 6.58 |  | 3.46 |  | 3.06 |  | 
9 | CCN(CC)CC(C)Nc1ccc([N+](=O)[O-])c2sc3ccccc3c(=O)c12 (stereo not given) | 1.49 | 9.79 | 2.21 | 11.9 | 1.6 | 23.8 | 2.82 | 11.7 | 1.68 | 4.03 | 1.45 | 3.91 | 2.58 | > 100 | 1.94 | 5.04 | 1.08 | 2.26 | 13.2 | 2.05
10 | CNC(=O)OC(C)CN1c2ccccc2Sc2ccc(Cl)cc21 (stereo not given) |  | > 10 |  | > 10 |  | > 10 |  | > 10 |  | > 10 |  | > 10 |  | > 10 |  | > 10 |  | > 10 | > 10 | 
11 | CCS(=O)(=O)Nc1ccc(Nc2c3ccccc3nc3ccccc23)c(OC)c1 |  |  |  | 9.3 |  | 5.11 |  | 0.13 |  |  |  | 16.1 |  | 7.71 |  | 18.8 |  | 12.9 |  | 
